Literature values as cited in patent publication US20050202566A1, “Device and method for determining parameters” (priority 2002, published 2005).

Test system: thrombus formation
Details: ex vivo flow models using whole blood; with increasing shear

| Compound | inhibition of thrombus formation as a function of shear |
| --- | --- |
| CC(=O)Oc1ccccc1C(=O)O [aspirin] | increasingly inhibit thrombus formation |
| O=C(O)COc1ccc(CCNS(=O)(=O)c2ccccc2)s1 [Linotroban] | increasingly inhibit thrombus formation |
